pKi: −log10 of the molar value.
Key:
[1] = tested on: ec302 (TEM-10); assay: Tigemonam potentiation (MPC@4), ec302; assay type: cell-based
[2] = tested on: KP1005 (CTX-M-14); assay: Aztreonam potentiation (MPC@4), KP1005; assay type: cell-based; details: BLI with aztreonam at 4 μg/mL
[3] = tested on: KP1010 (SHV-12); assay: Aztreonam potentiation (MPC@4), KP1010; assay type: cell-based
[4] = tested on: ec308 (SHV-5); assay: Aztreonam potentiation (MPC@4), ec308; assay type: cell-based; details: BLI with aztreonam at 4 μg/mL
[5] = molecular target: P99 (Enterobacter cloacae, UniProt P05364); assay: Ki, nitrocefin cleavage by purified enzyme, P99; assay type: biochemical; details: nitrocefin reporter substrate; read-out: Ki (P99, NCF)
P99, sequence (P05364 21-381): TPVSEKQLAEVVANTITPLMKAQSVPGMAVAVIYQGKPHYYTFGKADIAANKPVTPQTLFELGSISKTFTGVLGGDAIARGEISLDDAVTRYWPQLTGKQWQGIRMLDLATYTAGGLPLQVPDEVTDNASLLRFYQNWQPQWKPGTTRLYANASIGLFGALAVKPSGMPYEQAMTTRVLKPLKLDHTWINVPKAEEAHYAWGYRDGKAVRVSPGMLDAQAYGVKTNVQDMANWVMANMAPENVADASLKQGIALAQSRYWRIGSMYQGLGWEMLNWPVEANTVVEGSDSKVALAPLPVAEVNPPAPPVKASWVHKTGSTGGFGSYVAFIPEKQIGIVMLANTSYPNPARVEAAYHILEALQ
In short: (§1)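 Readout: nitrocefin hydrolysis, A490 recorded every 10 sec over 10 min. Enzyme and inhibitor (varied concentrations) preincubated 10 min, RT, in reaction buffer before substrate addition.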

[6] = molecular target: Pa AmpC (Pseudomonas aeruginosa, UniProt P24735); assay: Ki, nitrocefin cleavage by purified enzyme, Pa AmpC; assay type: biochemical; details: nitrocefin reporter substrate; read-out: Ki (Pa AmpC, NCF)
Pa AmpC, sequence (P24735 27-397): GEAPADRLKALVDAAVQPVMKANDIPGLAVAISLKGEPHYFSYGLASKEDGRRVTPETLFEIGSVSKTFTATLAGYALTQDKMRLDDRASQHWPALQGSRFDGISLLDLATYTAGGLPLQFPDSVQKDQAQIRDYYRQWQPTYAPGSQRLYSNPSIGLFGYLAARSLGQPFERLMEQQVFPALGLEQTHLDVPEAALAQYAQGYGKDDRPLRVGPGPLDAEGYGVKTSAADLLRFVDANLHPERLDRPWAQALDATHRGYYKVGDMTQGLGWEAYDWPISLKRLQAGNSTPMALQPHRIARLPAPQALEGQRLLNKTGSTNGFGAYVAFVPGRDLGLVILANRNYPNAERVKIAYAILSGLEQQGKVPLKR
In short: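 Ki derived spectrophotometrically: after adding nitrocefin, absorbance at 490 nm recorded every 10 sec over 10 min. Each purified enzyme had first been incubated with inhibitor at several concentrations for 10 min at room temperature.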

[7] = tested on: KP1086 (OXA-48); assay: Biapenem potentiation (MPC@1), KP1086; details: BLI with biapenem at 1 μg/mL
[8] = tested on: KP1009 (CTX-M-15); assay: Tigemonam potentiation (MPC@4), KP1009; assay type: cell-based; details: BLI with tigemonam at 4 μg/mL
[9] = tested on: KP1010 (SHV-12); assay: Tigemonam potentiation (MPC@4), KP1010; assay type: cell-based
[10] = tested on: EC1010 (CMY-6); assay: organism not typed; assay type: cell-based
[11] = tested on: PAM1032/KPC-2; assay: Biapenem potentiation MPC64, PAM1032/KPC-2 (efflux proficient); assay type: cell-based, Pseudomonas aeruginosa; details: BLI to decrease MIC of biapenem 64-fold; MexAB-OprM overexpressed
Procedure: Efflux of BLIs from Pseudomonas aeruginosa by the MexAB-OprM efflux pump was also evaluated. […] Due to expression of KPC-2 both strains became resistant to biapenem. […] Potency of BLIs to potentiate biapenem in these strains was determined. […] The ratio of MPC64 values for each BLI in PAM1032/KPC-2 (efflux proficient) and PAM1154/KPC-2 (efflux deficient) was determined to generate the Efflux Index (EI).

[12] = tested on: ECL1002; assay: Aztreonam potentiation (MPC@4), ECL1002; assay type: cell-based; details: BLI with aztreonam at 4 μg/mL
[13] = tested on: KP1004 (KPC-2); assay: Biapenem potentiation (MPC@1), KP1004; details: BLI with biapenem at 1 μg/mL
[14] = tested on: KP1005 (CTX-M-14); assay: Tigemonam potentiation (MPC@4), KP1005; assay type: cell-based; details: BLI with tigemonam at 4 μg/mL
[15] = tested on: ec308 (SHV-5); assay: Tigemonam potentiation (MPC@4), ec308; assay type: cell-based
[16] = tested on: ECL1002; assay: Tigemonam potentiation (MPC@4), ECL1002; assay type: cell-based; details: BLI with tigemonam at 4 μg/mL
[17] = tested on: KP1009 (CTX-M-15); assay: organism not typed; assay type: cell-based
[18] = molecular target: CTX-M-14 (Escherichia coli, UniProt Q9L5C7); assay: Ki, nitrocefin cleavage by purified enzyme, CTX-M-14; assay type: biochemical; details: nitrocefin reporter substrate; read-out: Ki (CTX-M-14, NCF)
CTX-M-14, sequence (Q9L5C7 29-291): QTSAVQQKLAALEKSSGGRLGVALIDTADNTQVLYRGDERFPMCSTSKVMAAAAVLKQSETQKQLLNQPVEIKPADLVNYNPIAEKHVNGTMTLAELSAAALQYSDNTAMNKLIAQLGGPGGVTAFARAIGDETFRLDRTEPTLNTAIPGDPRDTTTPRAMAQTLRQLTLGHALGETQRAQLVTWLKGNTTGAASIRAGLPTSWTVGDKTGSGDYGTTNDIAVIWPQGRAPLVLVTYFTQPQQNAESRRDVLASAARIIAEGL
In short: as §1

[19] = tested on: KP1004 (KPC-2); assay: Aztreonam potentiation (MPC@4), KP1004; assay type: cell-based; details: BLI with aztreonam at 4 μg/mL
[20] = molecular target: SHV-12 (Klebsiella pneumoniae, UniProt P0AD64, E235K/G234S/L31Q); assay: Ki, nitrocefin cleavage by purified enzyme, SHV-12; assay type: biochemical; details: nitrocefin reporter substrate; read-out: Ki (SHV-12, NCF)
SHV-12, sequence (P0AD64 22-286 L31Q/G234S/E235K): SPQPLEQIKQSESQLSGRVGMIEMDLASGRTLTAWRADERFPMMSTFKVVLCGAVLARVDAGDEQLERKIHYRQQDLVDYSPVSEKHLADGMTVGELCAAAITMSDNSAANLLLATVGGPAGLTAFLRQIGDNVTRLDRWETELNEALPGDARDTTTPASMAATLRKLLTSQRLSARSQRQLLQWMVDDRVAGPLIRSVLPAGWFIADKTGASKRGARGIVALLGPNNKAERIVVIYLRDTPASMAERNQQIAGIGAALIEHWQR
In short: as §1

[21] = molecular target: OXA-48 (Klebsiella pneumoniae, UniProt Q6XEC0); assay: Ki, nitrocefin cleavage by purified enzyme, OXA-48; assay type: biochemical; details: nitrocefin reporter substrate; read-out: Ki (OXA-48, NCF)
OXA-48, sequence (Q6XEC0 23-265, looked up, species assumed): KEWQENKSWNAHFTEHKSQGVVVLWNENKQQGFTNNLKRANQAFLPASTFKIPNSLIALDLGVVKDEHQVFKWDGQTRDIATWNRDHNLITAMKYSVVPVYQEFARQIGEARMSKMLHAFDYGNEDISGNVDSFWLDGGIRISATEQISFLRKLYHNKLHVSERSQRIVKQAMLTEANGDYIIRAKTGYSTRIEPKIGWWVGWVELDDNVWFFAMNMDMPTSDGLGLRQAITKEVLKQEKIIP
In short: as §1

[22] = tested on: ec302 (TEM-10); assay: Aztreonam potentiation (MPC@4), ec302; assay type: cell-based; details: BLI with aztreonam at 4 μg/mL
[23] = molecular target: KPC-2 (Klebsiella pneumoniae, UniProt Q9F663); assay: Ki, nitrocefin cleavage by purified enzyme, KPC-2; assay type: biochemical; details: nitrocefin reporter substrate; read-out: Ki (KPC-2, NCF)
KPC-2, sequence (Q9F663 25-293, looked up, species assumed): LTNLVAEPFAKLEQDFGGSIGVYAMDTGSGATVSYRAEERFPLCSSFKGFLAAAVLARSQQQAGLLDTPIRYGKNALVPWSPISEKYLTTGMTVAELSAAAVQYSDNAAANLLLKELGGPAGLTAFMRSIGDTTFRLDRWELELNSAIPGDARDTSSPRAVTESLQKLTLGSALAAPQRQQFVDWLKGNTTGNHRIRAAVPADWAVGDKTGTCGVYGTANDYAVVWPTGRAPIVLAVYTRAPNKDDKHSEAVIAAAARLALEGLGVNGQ
In short: as §1

[24] = tested on: EC1010 (CMY-6); assay: Tigemonam potentiation (MPC@4), EC1010; assay type: cell-based; details: BLI with tigemonam at 4 μg/mL
[25] = Intravenous pharmacokinetics; assay type: in vivo; details: rat, plasma; rats, 20 mg/kg, intravenous infusion over 0.5 hours; read-out: Free Cl (converted)
Procedure: Rats (n=3 per compound) were administered by a single infusion. Intravenous doses were infused over 0.5 hours via an indwelling femoral vein cannula. […] (˜0.3 mL) samples were collected from each rat at designated time points up to 24 hours. Blood samples were centrifuged within 5 min of collection at 12000 g for 5 min to obtain plasma. The plasma samples were stored at −80° C. until analyzed. Data were analyzed using WinNonlin. The doses of all compounds tested were 20 mg/kg.

## O=C(CSC(F)F)N[C@H]1Cc2cccc(C(=O)O)c2OB1O [C, reference compound]
[1]
  TIG MPC4 TEM-10 ec302: Y (key: X: MIC of less than 1 ng/mL; Y: MIC of 1 μg/mL to 10 μg/mL; Z: MIC of greater than 10 μg/mL)
[2]
  AZT MPC4 CTX-M-14 KP1005: X (MIC of less than 1 ng/mL)
[3]
  AZT MPC4 SHV-12 KP1010: X (key: X: MIC of less than 1 ng/mL; Y: MIC of 1 μg/mL to 10 μg/mL; Z: MIC of greater than 10 μg/mL)
[4]
  AZT MPC4 SHV-5 ec308: X (MIC of less than 1 ng/mL)
[5]
  pKi: 8.00 to 9.00
[6]
  pKi: > 9.00
[7]
  BPM MPC1 OXA-48 KP1086: Y (MIC of 1 μg/mL to 10 μg/mL)
[8]
  TIG MPC4 CTX-M-15 KP1009: X (MIC of less than 1 μg/mL)
[9]
  TIG MPC4 SHV-12 KP1010: X (key: X: MIC of less than 1 μg/mL; Y: MIC of 1 μg/mL to 10 μg/mL; Z: MIC of greater than 10 μg/mL)
[10]
  AZT MPC4 CMY-6 EC1010: X (key: X: MIC of less than 1 ng/mL; Y: MIC of 1 μg/mL to 10 μg/mL; Z: MIC of greater than 10 μg/mL)
[11]
  PAM1032/KPC-2 Biapenem MPC64: 80
[12]
  AZT MPC4 ECL1002: Y (MIC of 1 μg/mL to 10 μg/mL)
[13]
  BPM MPC1 KP1004 KPC-2: X (MIC of less than 1 μg/mL)
[14]
  TIG MPC4 CTX-M-14 KP1005: X (MIC of less than 1 μg/mL)
[15]
  TIG MPC4 SHV-5 ec308: X (key: X: MIC of less than 1 μg/mL; Y: MIC of 1 μg/mL to 10 μg/mL; Z: MIC of greater than 10 μg/mL)
[16]
  TIG MPC4 ECL1002: Y (MIC of 1 μg/mL to 10 μg/mL)

## O=C(O)CC(=O)N[C@H]1Cc2cccc(C(=O)O)c2OB1O [D, reference compound]
[1]
  TIG MPC4 TEM-10 ec302: Z (key: X: MIC of less than 1 ng/mL; Y: MIC of 1 μg/mL to 10 μg/mL; Z: MIC of greater than 10 μg/mL)
[17]
  AZT MPC4 CTX-M-15 KP1009: Y (key: X: MIC of less than 1 ng/mL; Y: MIC of 1 μg/mL to 10 μg/mL; Z: MIC of greater than 10 μg/mL)
[2]
  AZT MPC4 CTX-M-14 KP1005: Y (MIC of 1 μg/mL to 10 μg/mL)
[3]
  AZT MPC4 SHV-12 KP1010: Y (key: X: MIC of less than 1 ng/mL; Y: MIC of 1 μg/mL to 10 μg/mL; Z: MIC of greater than 10 μg/mL)
[18]
  pKi: > 9.00
[19]
  AZT MPC4 KPC-2 KP1004: Y (MIC of 1 μg/mL to 10 μg/mL)
[4]
  AZT MPC4 SHV-5 ec308: Y (MIC of 1 μg/mL to 10 μg/mL)
[20]
  pKi: 8.00 to 9.00
[5]
  pKi: < 8.00
[21]
  pKi: > 9.00
[6]
  pKi: < 8.00
[7]
  BPM MPC1 OXA-48 KP1086: Y (MIC of 1 μg/mL to 10 μg/mL)
[8]
  TIG MPC4 CTX-M-15 KP1009: Y (MIC of 1 μg/mL to 10 μg/mL)
[9]
  TIG MPC4 SHV-12 KP1010: Y (key: X: MIC of less than 1 ng/mL; Y: MIC of 1 μg/mL to 10 μg/mL; Z: MIC of greater than 10 μg/mL)
[22]
  AZT MPC4 TEM-10 ec302: Z (MIC of greater than 10 μg/mL)
[12]
  AZT MPC4 ECL1002: Y (MIC of 1 μg/mL to 10 μg/mL)
[13]
  BPM MPC1 KP1004 KPC-2: X (MIC of less than 1 μg/mL)
[23]
  pKi: < 8.00
[14]
  TIG MPC4 CTX-M-14 KP1005: Z (MIC of greater than 10 μg/mL)
[15]
  TIG MPC4 SHV-5 ec308: Y (key: X: MIC of less than 1 ng/mL; Y: MIC of 1 μg/mL to 10 μg/mL; Z: MIC of greater than 10 μg/mL)
[16]
  TIG MPC4 ECL1002: X (MIC of less than 1 μg/mL)
[24]
  TIG MPC4 CMY-6 EC1010: X (MIC of less than 1 μg/mL)

## O=C(CSC1CNC1)N[C@H]1Cc2ccc(F)c(C(=O)O)c2OB1O [Compound 2, (R)-3-(2-(azetidin-3-ylthio)acetamido)-7-fluoro-2-hydroxy-3,4-dihydro-2H-benzo[e][1,2]oxaborinine-8-carboxylic acid]
[1]
  TIG MPC4 TEM-10 ec302: Y (key: X: MIC of less than 1 ng/mL; Y: MIC of 1 μg/mL to 10 μg/mL; Z: MIC of greater than 10 μg/mL)
[18]
  pKi: > 9.00
[20]
  pKi: > 9.00
[5]
  pKi: < 8.00
[21]
  pKi: < 8.00
[6]
  pKi: < 8.00
[7]
  BPM MPC1 OXA-48 KP1086: Y (MIC of 1 μg/mL to 10 μg/mL)
[8]
  TIG MPC4 CTX-M-15 KP1009: X (MIC of less than 1 μg/mL)
[9]
  TIG MPC4 SHV-12 KP1010: X (key: X: MIC of less than 1 μg/mL; Y: MIC of 1 μg/mL to 10 μg/mL; Z: MIC of greater than 10 μg/mL)
[25]
  clearance: 10.2 mL/min/kg
[10]
  AZT MPC4 CMY-6 EC1010: Y (key: X: MIC of less than 1 ng/mL; Y: MIC of 1 μg/mL to 10 μg/mL; Z: MIC of greater than 10 μg/mL)
[22]
  AZT MPC4 TEM-10 ec302: Y (MIC of 1 μg/mL to 10 μg/mL)
[12]
  AZT MPC4 ECL1002: Y (MIC of 1 μg/mL to 10 μg/mL)
[13]
  BPM MPC1 KP1004 KPC-2: X (MIC of less than 1 μg/mL)
[23]
  pKi: < 8.00
[14]
  TIG MPC4 CTX-M-14 KP1005: X (MIC of less than 1 μg/mL)
[15]
  TIG MPC4 SHV-5 ec308: X (key: X: MIC of less than 1 μg/mL; Y: MIC of 1 μg/mL to 10 μg/mL; Z: MIC of greater than 10 μg/mL)
[16]
  TIG MPC4 ECL1002: X (MIC of less than 1 μg/mL)
[24]
  TIG MPC4 CMY-6 EC1010: X (MIC of less than 1 μg/mL)

Source: patent US9963467B2, “Boronic acid derivatives and therapeutic uses thereof” (Rempex Pharmaceuticals, Inc., priority 2014, dated 2018)
